Laboratory results from patent US20130065868A1, “ANXIOYTIC MARCGRAVIACEAE COMPOSITIONS CONTAINING BETULINIC ACID, BETULINIC ACID DERIVATIVES, AND METHODS” (UNIVERSITY OF OTTAWA, priority 2002, published 2013).

Tests used:
NE transporter = NE transporter (Homo sapiens, UniProt P23975); experiment: MDS Panlabs screen: NE transporter; assay type: binding; settings: Catecholamines
Procedure: (§1) Tests were conducted by MDS Panlabs to determine whether any of the classical neurotransmitter systems or the peptidergic systems thought to play a role in anxiety are affected by betulinic acid.

GABA C1-channel = experiment: MDS Panlabs screen: GABA channel; assay type: binding; settings: Gabaergic
Procedure: as §1

tachykinin NK1 = tachykinin NK1 (Homo sapiens, UniProt P25103); experiment: MDS Panlabs screen: tachykinin NK1; assay type: binding; settings: Peptides
tachykinin NK1, sequence (P25103 whole entry): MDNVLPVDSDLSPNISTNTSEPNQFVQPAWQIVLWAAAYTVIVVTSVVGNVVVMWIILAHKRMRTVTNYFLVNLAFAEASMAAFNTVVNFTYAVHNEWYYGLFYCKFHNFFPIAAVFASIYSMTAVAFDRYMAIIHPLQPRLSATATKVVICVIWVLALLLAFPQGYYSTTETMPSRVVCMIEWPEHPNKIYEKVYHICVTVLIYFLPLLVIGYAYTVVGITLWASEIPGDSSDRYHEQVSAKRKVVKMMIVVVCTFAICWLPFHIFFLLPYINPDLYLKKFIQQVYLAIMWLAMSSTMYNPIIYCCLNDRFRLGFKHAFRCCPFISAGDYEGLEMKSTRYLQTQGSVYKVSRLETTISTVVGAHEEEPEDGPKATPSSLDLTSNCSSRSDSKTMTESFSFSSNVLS
Procedure: as §1

domaine D1 = domaine D1 (Homo sapiens, UniProt P21728); experiment: MDS Panlabs screen: D1; assay type: binding; settings: Catecholamines
Procedure: as §1

5-HT3 = 5-HT3 (Homo sapiens, UniProt P46098); experiment: MDS Panlabs screen: 5-HT3; assay type: binding; settings: Serotonin (5-HT)
Procedure: as §1

neuropeptide Y1 = neuropeptide Y1 (Homo sapiens, UniProt P25929); experiment: MDS Panlabs screen: neuropeptide Y1; assay type: binding; settings: Peptides
neuropeptide Y1, sequence (P25929 whole entry): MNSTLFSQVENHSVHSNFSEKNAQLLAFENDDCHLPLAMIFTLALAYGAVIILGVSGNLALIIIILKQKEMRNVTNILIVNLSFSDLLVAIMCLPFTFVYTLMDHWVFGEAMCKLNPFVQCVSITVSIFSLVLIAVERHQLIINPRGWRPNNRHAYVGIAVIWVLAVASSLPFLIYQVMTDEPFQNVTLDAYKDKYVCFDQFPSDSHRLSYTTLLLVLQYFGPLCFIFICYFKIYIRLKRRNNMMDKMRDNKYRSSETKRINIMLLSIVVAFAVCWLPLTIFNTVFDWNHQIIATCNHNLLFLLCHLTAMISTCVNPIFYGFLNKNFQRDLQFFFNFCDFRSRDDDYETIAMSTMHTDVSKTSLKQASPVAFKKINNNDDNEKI
Procedure: as §1

MAO A = MAO A (Homo sapiens, UniProt P21397); experiment: MDS Panlabs screen: MAO A; assay type: biochemical; settings: Catecholamines
MAO A, sequence (P21397 whole entry, species assumed): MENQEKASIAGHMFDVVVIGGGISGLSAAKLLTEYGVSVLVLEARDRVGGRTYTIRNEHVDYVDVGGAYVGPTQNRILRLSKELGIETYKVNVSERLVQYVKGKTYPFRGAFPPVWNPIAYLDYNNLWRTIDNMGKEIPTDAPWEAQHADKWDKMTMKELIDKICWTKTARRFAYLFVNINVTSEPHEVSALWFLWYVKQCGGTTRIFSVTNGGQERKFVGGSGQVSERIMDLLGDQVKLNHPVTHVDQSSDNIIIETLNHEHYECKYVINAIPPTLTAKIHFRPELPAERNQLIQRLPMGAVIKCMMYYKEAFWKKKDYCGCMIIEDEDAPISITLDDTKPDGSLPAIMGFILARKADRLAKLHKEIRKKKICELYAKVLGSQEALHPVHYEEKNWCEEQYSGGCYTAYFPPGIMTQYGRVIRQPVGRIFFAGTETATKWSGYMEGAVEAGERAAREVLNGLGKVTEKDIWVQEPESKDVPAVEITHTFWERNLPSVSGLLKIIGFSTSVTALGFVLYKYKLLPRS
Procedure: as §1

COX-2 = COX-2 (Homo sapiens, UniProt P35354); experiment: MDS Panlabs screen: cyclooxygenase COX-2; assay type: biochemical
Procedure: as §1

adrenergic β = experiment: MDS Panlabs screen: adrenergic β; assay type: binding; settings: Catecholamines
Procedure: as §1

somatostatin = experiment: MDS Panlabs screen: somatostatin; assay type: binding; settings: Peptides
Procedure: as §1

CCKA = CCKA (Homo sapiens, UniProt P32238); experiment: MDS Panlabs screen: cholecystokinin (CCK) CCKA; assay type: binding; settings: Peptides
Procedure: as §1

serotonin transporter = serotonin transporter (Homo sapiens, UniProt P31645); experiment: MDS Panlabs screen: serotonin transporter; assay type: binding; settings: Serotonin (5-HT)
Procedure: as §1

tachykinin NK2 = tachykinin NK2 (Homo sapiens, UniProt P21452); experiment: MDS Panlabs screen: tachykinin NK2; assay type: binding; settings: Peptides
tachykinin NK2, sequence (P21452 whole entry): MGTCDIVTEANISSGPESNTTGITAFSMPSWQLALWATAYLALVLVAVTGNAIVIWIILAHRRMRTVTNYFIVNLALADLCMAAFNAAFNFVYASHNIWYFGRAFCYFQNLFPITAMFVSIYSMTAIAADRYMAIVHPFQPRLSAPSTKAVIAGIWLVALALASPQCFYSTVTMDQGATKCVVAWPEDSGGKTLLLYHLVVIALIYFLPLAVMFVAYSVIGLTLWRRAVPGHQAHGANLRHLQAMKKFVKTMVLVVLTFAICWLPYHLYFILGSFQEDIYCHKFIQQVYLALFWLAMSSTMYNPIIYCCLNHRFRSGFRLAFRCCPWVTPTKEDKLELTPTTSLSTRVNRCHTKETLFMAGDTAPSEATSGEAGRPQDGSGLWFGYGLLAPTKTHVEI
Procedure: as §1

[1] = Weight gain over chronic treatment; assay type: in vivo, rat; settings: rats, chronic 0.5 mg/kg daily orally (FIG. 12)
Histamine H1 = Histamine H1 (Homo sapiens, UniProt P35367); experiment: MDS Panlabs screen: Histamine H1; assay type: binding
Procedure: as §1

DA transporter = DA transporter (Homo sapiens, UniProt Q01959); experiment: MDS Panlabs screen: DA transporter; assay type: binding; settings: Catecholamines
Procedure: as §1

GABAB = GABAB (Homo sapiens, UniProt Q9UBS5); experiment: MDS Panlabs screen: GABAB; assay type: binding; settings: Gabaergic
Procedure: as §1

COMT = COMT (Homo sapiens, UniProt P21964); experiment: MDS Panlabs screen: COMT; assay type: biochemical; settings: Catecholamines
COMT, sequence (P21964 whole entry, species assumed): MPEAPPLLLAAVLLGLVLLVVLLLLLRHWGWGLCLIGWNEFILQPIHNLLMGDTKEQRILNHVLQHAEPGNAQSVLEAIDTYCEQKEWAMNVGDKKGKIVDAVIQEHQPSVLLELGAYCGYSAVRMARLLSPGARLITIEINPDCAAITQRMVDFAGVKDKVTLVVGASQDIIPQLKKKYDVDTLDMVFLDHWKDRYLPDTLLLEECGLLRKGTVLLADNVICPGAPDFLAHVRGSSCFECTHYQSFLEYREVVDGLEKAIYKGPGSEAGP
Procedure: as §1

nicototinic = experiment: MDS Panlabs screen: nicotinic; assay type: binding; settings: Acetylcholine
Procedure: as §1

adrenergic α2 = experiment: MDS Panlabs screen: adrenergic α2; assay type: binding; settings: Catecholamines
Procedure: as §1

bombesin = experiment: MDS Panlabs screen: bombesin; assay type: binding; settings: Peptides
Procedure: as §1

Sigma non-selective = experiment: MDS Panlabs screen: Sigma non-selective; assay type: binding
Procedure: as §1

[2] = general description of the substance; cited from earlier work
VIP1 = VIP1 (Homo sapiens, UniProt P32241); experiment: MDS Panlabs screen: VIP1; assay type: binding; settings: Peptides
Procedure: as §1

adrenergic α1 = experiment: MDS Panlabs screen: adrenergic α1; assay type: binding; settings: Catecholamines
Procedure: as §1

Glutamate non-selective = experiment: MDS Panlabs screen: Glutamate non-selective; assay type: binding; settings: Gabaergic
Procedure: as §1

5-HT2 = experiment: MDS Panlabs screen: 5-HT2; assay type: binding; settings: Serotonin (5-HT)
Procedure: as §1

opiate non-selective = experiment: MDS Panlabs screen: opiate non-selective; assay type: binding; settings: Peptides
Procedure: as §1

neuropeptide Y2 = neuropeptide Y2 (Homo sapiens, UniProt P49146); experiment: MDS Panlabs screen: neuropeptide Y2; assay type: binding; settings: Peptides
neuropeptide Y2, sequence (P49146 whole entry): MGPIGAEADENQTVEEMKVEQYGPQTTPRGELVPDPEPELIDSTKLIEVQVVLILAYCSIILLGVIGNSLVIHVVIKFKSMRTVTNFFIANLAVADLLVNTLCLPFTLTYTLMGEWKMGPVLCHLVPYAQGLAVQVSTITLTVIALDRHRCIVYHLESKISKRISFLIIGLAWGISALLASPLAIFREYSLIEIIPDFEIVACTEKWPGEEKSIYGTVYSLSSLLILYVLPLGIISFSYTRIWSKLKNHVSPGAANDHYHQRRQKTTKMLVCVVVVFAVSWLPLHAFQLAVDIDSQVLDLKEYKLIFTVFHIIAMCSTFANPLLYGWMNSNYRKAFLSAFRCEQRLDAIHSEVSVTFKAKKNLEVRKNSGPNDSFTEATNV
Procedure: as §1

melanocortin MC4 = melanocortin MC4 (Homo sapiens, UniProt P32245); experiment: MDS Panlabs screen: melanocortin MC4; assay type: binding; settings: Peptides
melanocortin MC4, sequence (P32245 whole entry): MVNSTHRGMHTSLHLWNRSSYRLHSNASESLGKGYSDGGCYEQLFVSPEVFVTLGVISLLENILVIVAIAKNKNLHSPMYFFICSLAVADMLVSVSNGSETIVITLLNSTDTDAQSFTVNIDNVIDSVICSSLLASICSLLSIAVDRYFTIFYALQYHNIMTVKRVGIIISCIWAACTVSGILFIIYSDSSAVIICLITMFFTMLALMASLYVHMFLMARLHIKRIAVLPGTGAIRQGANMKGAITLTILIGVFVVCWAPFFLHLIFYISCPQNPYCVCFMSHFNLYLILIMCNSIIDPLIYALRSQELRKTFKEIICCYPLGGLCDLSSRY
Procedure: as §1

galanin GalR1 = galanin GalR1 (Homo sapiens, UniProt P47211); experiment: MDS Panlabs screen: galanin GalR1; assay type: binding; settings: Peptides
Procedure: as §1

cannabinoid CB2 = cannabinoid CB2 (Homo sapiens, UniProt P34972); experiment: MDS Panlabs screen: cannabinoid CB2; assay type: binding; settings: Peptides
Procedure: as §1

muscarinic non-selective = experiment: MDS Panlabs screen: muscarinic non-selective; assay type: binding; settings: Acetylcholine
Procedure: as §1

[3] = Acute or chronic toxicity at repeated doses; assay type: in vivo; settings: 500 mg/kg vs anxiolytic dose
Text: This is a dose 1000 times higher than that needed to reduce anxiety.

cannabinoid C131 = cannabinoid C131 (Homo sapiens, UniProt P21554); experiment: MDS Panlabs screen: cannabinoid (first subtype); assay type: binding; settings: Peptides
cannabinoid C131, sequence (P21554 whole entry): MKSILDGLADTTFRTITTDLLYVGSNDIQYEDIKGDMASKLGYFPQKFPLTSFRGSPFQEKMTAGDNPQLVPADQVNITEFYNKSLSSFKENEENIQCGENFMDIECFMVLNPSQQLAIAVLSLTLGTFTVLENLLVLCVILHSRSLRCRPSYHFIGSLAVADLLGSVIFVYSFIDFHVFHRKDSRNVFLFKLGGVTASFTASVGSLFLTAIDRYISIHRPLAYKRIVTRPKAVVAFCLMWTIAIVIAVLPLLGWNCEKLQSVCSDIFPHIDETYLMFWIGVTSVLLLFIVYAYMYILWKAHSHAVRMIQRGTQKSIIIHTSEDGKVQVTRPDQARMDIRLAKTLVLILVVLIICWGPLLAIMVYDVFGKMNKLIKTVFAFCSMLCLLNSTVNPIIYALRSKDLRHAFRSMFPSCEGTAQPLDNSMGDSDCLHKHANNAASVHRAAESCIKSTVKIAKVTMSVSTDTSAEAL
Procedure: as §1

tachykinin NK3 = tachykinin NK3 (Homo sapiens, UniProt P29371); experiment: MDS Panlabs screen: tachykinin NK3; assay type: binding; settings: Peptides
Procedure: as §1

TNF non-selective = experiment: MDS Panlabs screen: TNF non-selective; assay type: binding; settings: Peptides
Procedure: as §1

EGF = EGF (Homo sapiens, UniProt P00533); experiment: MDS Panlabs screen: EGF; assay type: binding; settings: Peptides
EGF, sequence (P00533 25-1210): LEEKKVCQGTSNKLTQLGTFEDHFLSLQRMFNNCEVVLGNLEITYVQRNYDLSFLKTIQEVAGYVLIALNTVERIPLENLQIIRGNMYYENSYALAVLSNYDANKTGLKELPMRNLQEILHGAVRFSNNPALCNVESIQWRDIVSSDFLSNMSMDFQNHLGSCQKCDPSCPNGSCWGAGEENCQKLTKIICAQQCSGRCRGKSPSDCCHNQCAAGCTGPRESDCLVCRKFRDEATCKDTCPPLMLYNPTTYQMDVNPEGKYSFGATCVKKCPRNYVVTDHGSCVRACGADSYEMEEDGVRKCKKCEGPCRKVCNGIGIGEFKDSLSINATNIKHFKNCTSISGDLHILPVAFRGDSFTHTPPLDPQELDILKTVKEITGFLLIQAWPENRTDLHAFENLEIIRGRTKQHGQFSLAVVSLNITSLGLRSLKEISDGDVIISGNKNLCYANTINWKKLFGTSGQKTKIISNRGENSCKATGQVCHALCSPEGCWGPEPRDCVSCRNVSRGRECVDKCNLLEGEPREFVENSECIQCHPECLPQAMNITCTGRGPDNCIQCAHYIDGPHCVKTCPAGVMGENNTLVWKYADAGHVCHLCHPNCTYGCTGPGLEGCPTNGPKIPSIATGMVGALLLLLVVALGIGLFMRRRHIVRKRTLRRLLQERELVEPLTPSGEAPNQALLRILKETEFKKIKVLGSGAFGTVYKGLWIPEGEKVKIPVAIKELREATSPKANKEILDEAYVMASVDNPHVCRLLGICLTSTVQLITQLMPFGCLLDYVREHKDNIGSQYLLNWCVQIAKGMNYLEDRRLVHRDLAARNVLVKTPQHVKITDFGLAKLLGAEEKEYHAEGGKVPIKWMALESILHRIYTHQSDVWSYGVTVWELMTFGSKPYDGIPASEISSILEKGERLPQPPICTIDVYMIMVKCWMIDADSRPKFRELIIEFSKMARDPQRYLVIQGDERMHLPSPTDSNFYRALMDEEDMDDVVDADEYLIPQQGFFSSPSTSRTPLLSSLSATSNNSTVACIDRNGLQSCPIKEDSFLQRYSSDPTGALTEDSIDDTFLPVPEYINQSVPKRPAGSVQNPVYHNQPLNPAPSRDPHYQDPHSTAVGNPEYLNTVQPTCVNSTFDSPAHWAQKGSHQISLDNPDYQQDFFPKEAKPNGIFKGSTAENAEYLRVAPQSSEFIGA
Procedure: as §1

GLP-1 = GLP-1 (Homo sapiens, UniProt P43220); experiment: MDS Panlabs screen: GLP-1; assay type: binding; settings: Peptides
Procedure: as §1

[4] = Elevated plus maze, betulinic acid vs structurally related compounds (Example 11); assay type: in vivo; settings: 0.5 mg/kg (FIG. 7)
Text: This example compares the anxiolytic activity of betulinic acid and some other structurally related compounds. Results are illustrated in FIG. 7.

domaine D2 = domaine D2 (Homo sapiens, UniProt P14416); experiment: MDS Panlabs screen: D2; assay type: binding; settings: Catecholamines
Procedure: as §1

NE transporter, sequence (P23975 whole entry): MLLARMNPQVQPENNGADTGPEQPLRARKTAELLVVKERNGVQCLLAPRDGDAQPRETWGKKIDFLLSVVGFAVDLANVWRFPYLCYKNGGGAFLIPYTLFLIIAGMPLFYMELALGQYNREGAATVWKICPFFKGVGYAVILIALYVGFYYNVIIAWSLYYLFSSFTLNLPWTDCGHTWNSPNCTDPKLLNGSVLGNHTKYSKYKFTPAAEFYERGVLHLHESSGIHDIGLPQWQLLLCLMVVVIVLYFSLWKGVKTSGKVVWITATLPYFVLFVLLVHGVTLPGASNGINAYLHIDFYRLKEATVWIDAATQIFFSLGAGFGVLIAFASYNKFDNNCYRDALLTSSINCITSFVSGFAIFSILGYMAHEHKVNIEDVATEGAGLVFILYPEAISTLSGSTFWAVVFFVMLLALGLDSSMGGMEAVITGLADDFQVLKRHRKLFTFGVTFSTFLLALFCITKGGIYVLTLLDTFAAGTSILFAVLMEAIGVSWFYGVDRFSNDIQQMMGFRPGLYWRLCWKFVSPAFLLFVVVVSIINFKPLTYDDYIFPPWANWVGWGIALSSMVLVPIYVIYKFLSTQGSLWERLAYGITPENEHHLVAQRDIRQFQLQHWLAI

C=C(C)[C@@H]1CC[C@]2(C(=O)O)CC[C@]3(C)C(CC[C@@H]4[C@@]5(C)CC[C@H](O)C(C)(C)[C@@H]5CC[C@]43C)[C@@H]12 (some centres unmarked) [betulinic acid, Betulinic acid]
affected by betulinic acid (NE transporter): none of the following neurotransmitters or proteins were affected | affected by betulinic acid (GABA C1-channel): none of the following neurotransmitters or proteins were affected | affected by betulinic acid (tachykinin NK1): none of the following neurotransmitters or proteins were affected | affected by betulinic acid (domaine D1): none of the following neurotransmitters or proteins were affected | affected by betulinic acid (5-HT3): none of the following neurotransmitters or proteins were affected | affected by betulinic acid (neuropeptide Y1): none of the following neurotransmitters or proteins were affected | affected by betulinic acid (MAO A): none of the following neurotransmitters or proteins were affected | affected by betulinic acid (COX-2): none of the following neurotransmitters or proteins were affected | affected by betulinic acid (adrenergic β): none of the following neurotransmitters or proteins were affected | affected by betulinic acid (somatostatin): none of the following neurotransmitters or proteins were affected | affected by betulinic acid (CCKA): none of the following neurotransmitters or proteins were affected | affected by betulinic acid (serotonin transporter): none of the following neurotransmitters or proteins were affected | affected by betulinic acid (tachykinin NK2): none of the following neurotransmitters or proteins were affected | effect of chronic drug treatment on weight gain [1]: did not seem to affect weight gain in a significant manner | affected by betulinic acid (Histamine H1): none of the following neurotransmitters or proteins were affected | affected by betulinic acid (DA transporter): none of the following neurotransmitters or proteins were affected | affected by betulinic acid (GABAB): none of the following neurotransmitters or proteins were affected | affected by betulinic acid (COMT): none of the following neurotransmitters or proteins were affected | affected by betulinic acid (nicototinic): none of the following neurotransmitters or proteins were affected | affected by betulinic acid (adrenergic α2): none of the following neurotransmitters or proteins were affected | affected by betulinic acid (bombesin): none of the following neurotransmitters or proteins were affected | affected by betulinic acid (Sigma non-selective): none of the following neurotransmitters or proteins were affected | solubility (solvents) [2]: soluble in water, ethanol, ether, acetone, benzene, and chloroform | affected by betulinic acid (VIP1): none of the following neurotransmitters or proteins were affected | affected by betulinic acid (adrenergic α1): none of the following neurotransmitters or proteins were affected | affected by betulinic acid (Glutamate non-selective): none of the following neurotransmitters or proteins were affected | affected by betulinic acid (5-HT2): none of the following neurotransmitters or proteins were affected | affected by betulinic acid (opiate non-selective): none of the following neurotransmitters or proteins were affected | affected by betulinic acid (neuropeptide Y2): none of the following neurotransmitters or proteins were affected | affected by betulinic acid (melanocortin MC4): none of the following neurotransmitters or proteins were affected | affected by betulinic acid (galanin GalR1): none of the following neurotransmitters or proteins were affected | affected by betulinic acid (cannabinoid CB2): none of the following neurotransmitters or proteins were affected | affected by betulinic acid (muscarinic non-selective): none of the following neurotransmitters or proteins were affected | non-toxic dose relative to the dose needed to reduce anxiety [3]: 1000 times | affected by betulinic acid (cannabinoid C131): none of the following neurotransmitters or proteins were affected | affected by betulinic acid (tachykinin NK3): none of the following neurotransmitters or proteins were affected | affected by betulinic acid (TNF non-selective): none of the following neurotransmitters or proteins were affected | affected by betulinic acid (EGF): none of the following neurotransmitters or proteins were affected | affected by betulinic acid (GLP-1): none of the following neurotransmitters or proteins were affected | proportion of time spent in the open arm of the elevated plus maze [4]: increased | affected by betulinic acid (domaine D2): none of the following neurotransmitters or proteins were affected
